In brackets after ≈: the same amount, converted by molar mass. Where two headings read alike, the source gives them in different places. Where a SMILES comes first, the peptide text is derived from it. Where no end group is shown, it is not given here.
Columns and labels:
[1] = biological target: T1, ClpXP (Escherichia coli, UniProt P0A6G7+P0A6H1); assay: ClpXP degradation of GFP-tag in the absence of SspB (Examples 1-2); format: biochemical, E. coli; conditions: for Ki: GFP-tag degradation by ClpXP; for Ki / inhibition of GFP-tag degradation by ClpXP in the absence of SspB: no SspB
T1 sequence (P0A6G7 15-207): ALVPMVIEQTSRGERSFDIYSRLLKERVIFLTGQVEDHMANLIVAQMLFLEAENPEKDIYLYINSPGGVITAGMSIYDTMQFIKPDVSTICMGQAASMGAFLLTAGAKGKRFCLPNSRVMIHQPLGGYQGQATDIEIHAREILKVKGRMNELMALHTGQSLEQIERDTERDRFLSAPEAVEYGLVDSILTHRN
T1 sequence (P0A6H1 whole entry): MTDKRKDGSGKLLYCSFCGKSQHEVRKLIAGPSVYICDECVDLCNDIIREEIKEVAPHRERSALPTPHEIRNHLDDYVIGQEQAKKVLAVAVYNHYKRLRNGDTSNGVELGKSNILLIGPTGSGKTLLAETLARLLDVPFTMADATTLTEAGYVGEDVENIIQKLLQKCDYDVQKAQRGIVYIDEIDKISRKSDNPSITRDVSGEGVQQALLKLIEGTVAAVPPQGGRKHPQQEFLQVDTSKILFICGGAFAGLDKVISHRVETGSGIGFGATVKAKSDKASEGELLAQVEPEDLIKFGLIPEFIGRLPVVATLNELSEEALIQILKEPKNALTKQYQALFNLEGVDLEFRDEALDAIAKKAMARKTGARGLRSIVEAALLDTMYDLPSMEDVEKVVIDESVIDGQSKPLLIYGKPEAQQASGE
Method: (§1) ClpXP Proteolysis: PD buffer contained 25 mM HEPES-KOH (pH 7.6), 5 mM KCl, 5 mM MgCl2, 0.032% NP-40, 5 mM ATP, and 10% glycerol. The ATP regenerating system consisted of 8 mM creatine phosphate and 0.16 mg/ml creatine kinase. Inhibition experiments were performed using a Hitachi F-2000 Fluorescence Spectrophotometer. The rate of GFP-ssrA degradation was monitored at 30° C. for 5 minutes by the loss of fluorescence (excitation 488 nm; emission 507 nm). Competition experiments with increasing concentrations of peptide were performed using GFP-ssrA (0.2 μM), ClpX6 (0.3 ArM), ClpP14 (0.8 μM), and SspB2 (0.3 μM) in PD buffer plus 200 mM KCl and ATP regenerating system. Curve fitting for the competitive inhibition assays were performed using the Scientist program (MicroMath Scientific Software, Inc.).
A priori, there are several steps in the degradation pathway that could be inhibited by the selected cyclic peptides: binding of the substrate-SspB complex to ClpXP, ATPase activity of ClpX, and hydrolysis of the peptide bond by ClpP. Molecules that block the binding of substrate to SspB should not be inhibitors of proteolysis by ClpXP, because ClpXP will degrade tmRNA-tagged substrates in the absence of SspB. To determine if the inhibitors act through SspB, the kinetic assays were repeated in the absence of this proteolytic adaptor.

[2] = tested on: C. crescentus; format: cell-based, Caulobacter crescentus; conditions: 14 h
Method: Antibacterial activity assays: To measure the effects of peptides on bacterial growth, cultures of C. crescentus were diluted to OD600=0.001, peptide was added at various concentrations, the cultures were incubated at 30° C. for 14 h, and the MIC was determined as the lowest concentration of peptide that prevented growth. To determine the MBC, each culture was diluted 1:100 in PYE and 10 μl of the diluted culture was spread onto PYE agar plates, incubated at 30° C. overnight, and the number of colonies on each plate was counted. The MBC was assigned as the concentration of peptide that reduced the number of colonies by 99.9% compared to cultures with no inhibitor.

[3] = tested on: C. crescentus; format: cell-based, Caulobacter crescentus
Method: Antibacterial activity: The peptides recovered from the selection were tested for antibacterial activity by incubating a 1:1,000 diluted saturated culture with the peptide overnight at room temperature. For each peptide a series of concentrations were tested. The mix was then plated, and the colonies were counted after a period incubation at 30° for C. crescentus or 37° C. for B. subtilis. For C. crescentus, PYE liquid media were incubated overnight at 30° C. at 250 rpm, and PYE plates were incubated for 3 days at 30° C. For B. subtilis, LB liquid media and plates were incubated overnight at 37° C. […]
Antibacterial activity of cyclic peptide inhibitors: Because ClpXP is essential in C. crescentus, we examined whether the inhibitory peptides have any effect when added exogenously to growing cultures. […] ClpXP is not essential in Bacillus subtilis, but mutants lacking ClpXP activity have growth and sporulation defects. […] No killing of E. coli or the related γ-proteobacteria Shigella flexneri and Vibrio cholera was observed. It remains to be determined if the selected cyclic peptides are effective against pathogenic bacterial that require the tmRNA-ClpXP pathway.

[4] = biological target: T1, ClpXP; assay: ClpXP degradation of GFP-tag in the presence of SspB, continuous fluorimetric assay (Examples 1-2); format: biochemical, E. coli; conditions: GFP-tag degradation by ClpXP
Method: as §1
Characterization of ClpXP inhibitors in vitro: Two of the selected cyclic peptides were synthesized in vitro to examine their effects on enzymatic assays. Peptides with the sequence SGWRVQGPL (SEQ ID NO: 1) and SGSKGVLPL (SEQ ID NO: 2) were chemically synthesized in the linear form, circularized, and purified by HPLC. The effects of these peptides on the activity of purified ClpXP were determined in vitro using a continuous fluorimetric assay. GFP-tag, SspB, ClpX and ClpP were each purified from over-expressing strains of E. coli, and degradation of GFP-tag was monitored by loss of fluorescence. In reactions containing all components, GFP-tag was degraded with kinetic parameters kcat=1.79±0.08 min−1, KM=0.74±0.04, similar to the previously published values of 1.44 min^−1 and 0.96 μM. […] For both cyclic peptides, inhibition of ClpXP was reversible, as no inhibition was observed when ClpXP was incubated with peptide at concentrations above the Kr, and dialyzed to remove unbound peptide before addition of enzyme to the reaction. The linear versions of SGSKGVLPL (SEQ ID NO: 2) and SGWRVQGPL (SEQ ID NO: 1) had Kb, values >1 mM (Table 4), so the cyclic architecture is likely to be important for inhibition.

[5] = biological target: T1, ClpXP; assay: biochemical; format: biochemical, E. coli; conditions: for Ki: purified peptides and E. coli proteins, GFP-tag; for Ki / mode of inhibition of GFP-tag degradation: SspB present
Method: In vitro proteolysis assays: Proteolysis of GFP-tag was performed using a continuous fluorescence assay essentially as previously described (Levchenko et al. 2000, Science 289: 2354-2356). Briefly, loss of GFP fluorescence was monitored at 507 nm after excitation at 395 nm at 30° C. using a Hitachi F-2000 Fluorescence Spectrophotometer in buffer R (25 mM HEPES-KOH (pH 7.6), 5 mM MgCl2, 50 mM KCl, 0.032% NP-40, 10% glycerol, and an ATP regeneration system containing 4 mM ATP (pH 7), 16 mM creatine phosphate and 0.32 mg/ml creatine kinase). Typically, reactions contained […], 0.3 μM ClpP14, and equimolar concentrations (0.2 μM-2.0 μM) GFP-tag and SspB. Degradation of GFP-tag protein was confirmed by SDS-PAGE assays. To examine inhibition of GFP-tag proteolysis, peptides were incubated with ClpXP in reaction buffer for 5 min prior to the addition of GFP-tag. Plots of fluorescence versus time were fit with a single exponential function to determine the initial rate of proteolysis. Kinetic parameters were estimated using Eadie-Hofstee plots.
Proteolysis of GFP-tag in the presence of ClpXP and SspB was monitored by loss of GFP fluorescence in a continuous fluorometric assay. In the absence of cyclic peptide, GFP-tag was degraded with kinetic parameters kcat=[…], KM=0.74±0.04 μM. […] Likewise, no degradation was observed when ClpX or ClpP were omitted from the reaction.

[6] = biological target: T1, ClpXP; assay: ClpXP degradation of λO protein (Example 1); format: biochemical, E. coli; conditions: concentrations near or 10-fold above the KI for GFP-tag
Method: The differing effects of SspB on inhibition indicate that inhibitors for two different steps in the ClpXP degradation pathway were obtained from the genetic screen. To confirm the different specificities of these two inhibitors, the effects on ClpXP degradation of a substrate unrelated to tmRNA tagged proteins was assayed. Because ClpXP can recognize at least 5 different protein sequences as substrate determinants, it has been proposed that there are several substrate binding sites on the protease. Inhibitors that block one site of interaction are expected to affect degradation of only the substrates that bind at that site. Conversely, inhibitors that block catalysis or obstruct a binding site required by all substrates should affect degradation of any ClpXP substrate.

[7] = tested on: GFP-tag reporter; assay: GFP-tag reporter fluorescence in cells expressing SGW+5 SICLOPPS clones, epifluorescence microscopy (Example 1); format: cell-based, E. coli
Source text: Clonal populations are obtained by spotting the cells with high fluorescence on agar plates, and cells from each colony are screened by epi-fluorescence microscopy for fluorescence intensity. SICLOPPS plasmids from clones that pass the microscopy screen were isolated and sequenced to identify the cyclic peptide that is produced in that clone.
A SICLOPPS library was constructed in which the cyclic peptide contains three constant amino acids, SGW, followed by five random amino acids encoded by NNS codons. This library was introduced into cells containing the GFP-tag reporter, and the expression of the reporter and cyclic peptide were induced. Approximately 690,000 cells were sorted by FACS and the brightest 50 were isolated. These 50 clones were grown individually in fresh medium, the expression of reporter and cyclic peptide was induced, and the culture was observed by epifluorescence microscopy. Two clones produced cultures in which nearly 100% of the cells were highly fluorescent.

[8] = tested on: GFP-tag degradation by ClpXP; assay: In vivo screen: GFP-tag reporter fluorescence in E. coli producing the cyclic peptide from a SICLOPPS plasmid, epifluorescence microscopy (Example 3); format: cell-based
Method: Screen for inhibitors of the tmRNA pathway: E. coli BW7786 cells containing the GFP-tag reporter and the SICLOPPS library were grown in LB broth with 30 μg/ml chloramphenicol, 100 μg/ml ampicillin, and 0.0002% arabinose at 37° C. to OD600=0.3. IPTG was added to a final concentration of 1 mM, and the culture was grown for 3 hours. Cells were sorted by fluorescence activated cell sorting (FACS) using a Beckman Coulter Elite cell sorter with Autoclone to isolate cells with GFP fluorescence, and selected cells were deposited on agar plates for clonal growth. Cells from each colony were grown in liquid culture as described above and examined by epifluorescence microscopy. The fluorescence intensity and the number of cells with fluorescence above background were scored using ImagePro software (MediaCybernetics). SICLOPPS plasmid DNA was prepared from selected clones and the region encoding the cyclic peptide was sequenced. Peptide sequences were obtained from conceptual translation of the DNA sequences.
Approximately 0.014% of the population had fluorescence over the background level, and 96 of these cells were isolated for clonal growth and characterization. To eliminate any clones that resulted from sorting errors or spurious accumulation of GFP, cells from each colony were cultured and examined by epifluorescence microscopy.

[9] = SspB present, read-out: KI value +SspB

| Compound | Ki [1] | MBC [2] | MIC [2] | MIC [3] | Ki [5] | inhibition of ClpXP proteolysis of GFP-tag in vitro ([5]; at the concentrations tested) | other results |
| --- | --- | --- | --- | --- | --- | --- | --- |
| CSCC[C@@H]1NC(=O)[C@H](Cc2c[nH]c3ccccc23)NC(=O)[C@H](CCCCN)NC(=O)[C@H](Cc2ccc(O)cc2)NC(=O)[C@@H]2CCCN2C(=O)[C@H](Cc2c[nH]c3ccccc23)NC(=O)CNC(=O)[C@H](CO)NC1=O [Con62, SGWPYKWM, reference compound] (HELM PEPTIDE1{G.W.P.Y.K.W.M.S}$PEPTIDE1,PEPTIDE1,1:R1-8:R2$$$V2.0) | > 1000 µM | >600 µM | >600 µM | >250 µM | > 1000 µM |  | Ki [4, 9]: > 1000 µM |
| CC(C)C[C@@H]1NC(=O)[C@@H]2CCCN2C(=O)[C@H](CC(C)C)NC(=O)[C@H](C(C)C)NC(=O)CNC(=O)[C@H](CCCCN)NC(=O)[C@H](CO)NC(=O)CNC(=O)[C@H](CO)NC1=O [ICP1, SGSKGVLPL] (HELM PEPTIDE1{G.S.K.G.V.L.P.L.S}$PEPTIDE1,PEPTIDE1,1:R1-9:R2$$$V2.0) |  |  |  | 62.2 µM (≈ 52.2 µg/mL) |  | inhibited | effect on degradation of λO protein by ClpXP [6]: inhibited; inhibition of GFP-tag degradation by ClpXP in the absence of SspB [1]: inhibited; mode of inhibition of GFP-tag degradation [5]: competitive inhibitors |
| CC(C)C[C@@H]1NC(=O)[C@@H]2CCCN2C(=O)CNC(=O)[C@H](CCC(N)=O)NC(=O)[C@H](C(C)C)NC(=O)[C@H](CCCNC(=N)N)NC(=O)[C@H](Cc2c[nH]c3ccccc23)NC(=O)CNC(=O)[C@H](CO)NC1=O [ICP2, SGWRVQGPL] (HELM PEPTIDE1{G.P.L.S.G.W.R.V.Q}$PEPTIDE1,PEPTIDE1,1:R1-9:R2$$$V2.0) | > 1000 µM |  |  | 62.2 µM (≈ 61 µg/mL) |  | inhibited | effect on degradation of λO protein by ClpXP [6]: no effect; inhibition of GFP-tag degradation by ClpXP in the absence of SspB [1]: did not inhibit; KI in the absence of SspB, fold higher ([1]; no SspB versus +SspB): at least 10 fold; mode of inhibition of GFP-tag degradation [5]: competitive inhibitors |
| CSCC[C@@H]1NC(=O)CNC(=O)[C@H](CCCNC(=N)N)NC(=O)[C@H](CCCNC(=N)N)NC(=O)[C@H](Cc2c[nH]cn2)NC(=O)[C@H](Cc2c[nH]c3ccccc23)NC(=O)CNC(=O)[C@H](CO)NC1=O [IXP2, SGWHRRGM] (HELM PEPTIDE1{G.M.S.G.W.H.R.R}$PEPTIDE1,PEPTIDE1,1:R1-8:R2$$$V2.0) |  | >600 µM | 430 ± 40 µM (≈ 416 µg/mL) |  | > 1000 µM | did not inhibit | average fluorescent intensity relative to cultures expressing ICP1 or ICP2 [7]: more than twice; cells highly fluorescent ([7]; induced culture): ~100%; % fluorescent cells ([8]; cells with fluorescence at least 0.5 times that of ΔclpX cells producing GFP-tag): 30-40%; GFP-tag fluorescence / inhibition in vivo ([8]; compared with ΔclpX strain): indistinguishable from the ΔclpX strain |
| H-SGSKGVLPL-OH [linICP1, SGSKGVLPL] | > 1500 µM |  |  | >250 µM |  |  | Ki [4, 9]: > 1500 µM; Ki ([4]; read-out: Kb, values (KI) of linear versions): > 1000 µM; inhibition of ClpXP in vitro at concentrations up to 1 mM [5]: little inhibition |
| H-SGWYGRRH-OH [linear IXP1, SGWYGRRH] |  | 481 ± 38 µM | 385 ± 28 µM |  | > 1000 µM |  | inhibition of ClpXP in vitro at concentrations up to 1 mM [5]: little inhibition |
| SGGRGGRPL (also: cyclic, mode of cyclisation not given here) [IXP5] |  |  |  |  |  |  | inhibition of ClpXP proteolysis of GFP-tag in vitro [5]: did not inhibit |
| SGWHRRGM [linear IXP2, SGWHRRGM] |  | 376 ± 37 µM | 304 ± 27 µM |  |  |  |  |
| SGWRVQGPL [linICP2, SGWRVQGPL] |  |  |  | >250 µM |  |  |  |
